Results as given in PubChem BioAssay AID1963982 (Molecular Pharmacology Branch, DTP, NCI, 2024).

Test system: 313798-341-R-J2-PDC spheroids, viability
Assay: Anticancer human tumor 313798-341-R-J2-PDC patient-derived cervical squamous cell carcinoma cell line growth inhibition [PI3K]
Conditions: spheroids with HUVEC and MSC; for IC50: curve of first compound; for viability, T/C: stronger effect = lower value
Description: Combinatorial screen of targeted agents with the PI3K inhibitors inavolisib, alpelisib, duvelisib, and copanlisib in multi-cell type tumor spheroids
A high-throughput screen of multi-cell type tumor spheroids was designed to identify active combinations of targeted small molecules and PI3K pathway inhibitors. Complex spheroids include a stromal component modeled by human endothelial cells (HUVEC) and fibroblasts modeled by human mesenchymal stem cells (MSCs). The concentration ranges selected for each drug and investigational agent were based upon clinically achievable concentrations if the clinical Cmax of the agent was known.
Compounds. The drugs and investigational agents: inavolisib (NSC800729), alpelisib (NSC765974), duvelisib (NSC772469), copanlisib (NSC816437), ipatasertib (NSC767898), afuresertib (NSC778305), talazoparib (NSC767125), sapanisertib (NSC764658), selumetinib (NSC741078), tovorafenib (DAY101, NSC766906), vemurafenib (NSC761431), ravoxertinib (NSC781343), sotorasib (NSC818433), MRTX1133 (NSC 836407), abemaciclib (NSC 768073), palbociclib (NSC758247), venetoclax (NSC 766270), SY5609 (NSC837396), enzalutamide (NSC755605), and darolutamide (NSC825331), were obtained from the National Cancer Institute (NCI) Developmental Therapeutics Program Chemical Repository. The FDA-approved anticancer drug set is available from the NCI Developmental Therapeutics Program. […] The stock solutions were prepared in dimethyl sulfoxide (DMSO, Sigma-Aldrich, St. Louis, MO, cat. D2650) at 800-fold the tested concentration and stored at -70 degrees C prior to their use. All drugs and investigational agents were tested over a range starting from a high concentration at or near the clinical Cmax and decreasing in half-log increments. If the clinical Cmax for an agent had not been determined, the highest concentration tested was 10 microM.
Cell Culture. All cells were maintained in an incubator at 37 degrees C and 5% CO2 with 95% humidity. The PDC lines were cultured according to standard operating procedures established by the NCI PDMR (https://pdmr.cancer.gov/sops/default.htm). All PDCs were thawed and cultured in Matrigel-coated flasks prepared with a working solution of 1X Ham's F-12 nutrient mix, without supplementation (Invitrogen, Waltham, MA, cat. 11765054), 100 U/mL penicillin-streptomycin (Invitrogen, cat. 15140122), and 2.5% Matrigel (Corning Inc., Corning, NY, cat. 354248) for the first three passages. The 354836-022-R-J1-PDC, 475296-252-R-J1-PDC, and 997726-040-R-J2-PDC lines were cultured in 6A media, which includes advanced DMEM/F-12 (Thermo Fisher Scientific, cat. 12634028), 10 mM HEPES (Thermo Fisher Scientific, cat. 15630080), 1X GlutaMAX supplement (Thermo Fisher Scientific, cat. 35050061), 0.1 mg/mL primocin (InvivoGen, San Diego, CA, cat. ant-pm-2), 10% defined fetal bovine serum, heat inactivated (HyClone Laboratories Inc., Logan, UT, cat. SH30070.03HI), 50% L-WRN conditioned media (ATCC, cat. CRL-3276), 1.25 mM N-Acetyl-L-cysteine (Sigma-Aldrich, cat. A9165), 10 mM nicotinamide (Sigma-Aldrich, cat. N0636), 1X B-27 supplement (Thermo Fisher Scientific, cat. 17504044), 1X N-2 supplement (Thermo Fisher Scientific, cat. 17502048), and 10 microM Y-27632 dihydrochloride (Tocris Bioscience, Bristol, United Kingdom, cat. 1254). The 624824-186-R-J2-PDC line was cultured in 6C/Colon 1B media, which includes all 6A media components plus 50 ng/mL human EGF recombinant protein (Thermo Fisher Scientific, cat. PHG0311). […]
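Note: spheroids exposed to compounds for seven days.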
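Throughout, for viability, T/C: 100% = DMSO vehicle control viability.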

- IC50 (second compound 0.00316 µM): 5.94 µM
- IC50 (second compound 0.01 µM): 5.98 µM
- IC50 (second compound 0.0316 µM): 5.9 µM
- IC50 (second compound 0.1 µM): 4.72 µM
- IC50 (second compound 0.316 µM): 1.91 µM
- IC50 (second compound 1 µM): < 0.0316 µM
Structure (SMILES): C[C@@H](NC(=O)c1ncnc(N)c1Cl)c1ncc(C(=O)Nc2cc(C(F)(F)F)c(Cl)cn2)s1 + CC(Nc1ccc2c(c1)OCCn1cc(N3C(=O)OCC3C(F)F)nc1-2)C(N)=O
- viability, T/C (second compound 0.00316 µM, first compound 0.0316 µM): 101%
- viability, T/C (second compound 0.00316 µM, first compound 0.1 µM): 106%
- viability, T/C (second compound 0.00316 µM, first compound 0.316 µM): 103%
- viability, T/C (second compound 0.00316 µM, first compound 1 µM): 95.4%
- viability, T/C (second compound 0.00316 µM, first compound 3.16 µM): 110%
- viability, T/C (second compound 0.00316 µM, first compound 10 µM): 6.06%
- viability, T/C (second compound 0.01 µM, first compound 0.0316 µM): 110%
- viability, T/C (second compound 0.01 µM, first compound 0.1 µM): 105%
- viability, T/C (second compound 0.01 µM, first compound 0.316 µM): 95.1%
- viability, T/C (second compound 0.01 µM, first compound 1 µM): 105%
- viability, T/C (second compound 0.01 µM, first compound 3.16 µM): 110%
- viability, T/C (second compound 0.01 µM, first compound 10 µM): 5.51%
- viability, T/C (second compound 0.0316 µM, first compound 0.0316 µM): 99.9%
- viability, T/C (second compound 0.0316 µM, first compound 0.1 µM): 103%
- viability, T/C (second compound 0.0316 µM, first compound 0.316 µM): 110%
- viability, T/C (second compound 0.0316 µM, first compound 1 µM): 114%
- viability, T/C (second compound 0.0316 µM, first compound 3.16 µM): 99.6%
- viability, T/C (second compound 0.0316 µM, first compound 10 µM): 8.08%
- viability, T/C (second compound 0.1 µM, first compound 0.0316 µM): 81.9%
- viability, T/C (second compound 0.1 µM, first compound 0.1 µM): 78%
- viability, T/C (second compound 0.1 µM, first compound 0.316 µM): 91.8%
- viability, T/C (second compound 0.1 µM, first compound 1 µM): 92.7%
- viability, T/C (second compound 0.1 µM, first compound 3.16 µM): 73.3%
- viability, T/C (second compound 0.1 µM, first compound 10 µM): 6.24%
- viability, T/C (second compound 0.316 µM, first compound 0.0316 µM): 55.2%
- viability, T/C (second compound 0.316 µM, first compound 0.1 µM): 54.6%
- viability, T/C (second compound 0.316 µM, first compound 0.316 µM): 61.6%
- viability, T/C (second compound 0.316 µM, first compound 1 µM): 66.5%
- viability, T/C (second compound 0.316 µM, first compound 3.16 µM): 42.6%
- viability, T/C (second compound 0.316 µM, first compound 10 µM): 9.28%
- viability, T/C (second compound 1 µM, first compound 0.0316 µM): 51.8%
- viability, T/C (second compound 1 µM, first compound 0.1 µM): 41.5%
- viability, T/C (second compound 1 µM, first compound 0.316 µM): 53.4%
- viability, T/C (second compound 1 µM, first compound 1 µM): 45.4%
- viability, T/C (second compound 1 µM, first compound 3.16 µM): 29.3%
- viability, T/C (second compound 1 µM, first compound 10 µM): 14.3%
